Drug metabolism and degraded data for five molecules are collected here from ChEMBL document CHEMBL3804787, “Electrophilic Oxidation and [1,2]-Rearrangement of the Biindole Core of Birinapant” (ACS Med Chem Lett, 2016).

A short description of series [1]: Drug level using Birinapant assessed as compound formation by HPLC analysis. The class given is physicochemical.
Series [2] in a line: Drug degradation of the compound at 40 degC/75% RH measured after 1 year by HPLC analysis. The class given is physicochemical. To be noted: read-out: Drug degradation.

For the molecule `CC[C@H](NC(=O)[C@H](C)NC)C(=O)N1C[C@@H](O)C[C@H]1Cc1c([C@@]2(C[C@@H]3C[C@H](O)CN3C(=O)[C@H](CC)NC(=O)[C@H](C)NC)Nc3cc(F)ccc3C2=O)[nH]c2cc(F)ccc12`, the Drug metabolism result in series [1] is given as “metabolite_detected”.

For the molecule `CC[C@H](NC(=O)[C@H](C)NC)C(=O)N1C[C@@H](O)C[C@H]1C[C@@]1(O)C(c2[nH]c3cc(F)ccc3c2C[C@H]2C[C@@H](O)CN2C(=O)[C@@H](CC)NC(=O)[C@@H](C)NC)=Nc2cc(F)ccc21`, the Drug metabolism result in series [1] was “metabolite_detected”.

Regarding `CC[C@H](NC(=O)[C@H](C)NC)C(=O)N1C[C@@H](O)C[C@H]1C[C@]1(O)C(c2[nH]c3cc(F)ccc3c2C[C@H]2C[C@@H](O)CN2C(=O)[C@@H](CC)NC(=O)[C@@H](C)NC)=Nc2cc(F)ccc21`, the Drug metabolism result in series [1] is “metabolite_detected”.

For the molecule `CC[C@H](NC(=O)[C@H](C)NC)C(=O)N1C[C@@H](O)C[C@H]1Cc1c([C@]2(C[C@@H]3C[C@H](O)CN3C(=O)[C@H](CC)NC(=O)[C@H](C)NC)Nc3cc(F)ccc3C2=O)[nH]c2cc(F)ccc12`, in series [1], the Drug metabolism result was “metabolite_detected”.

For the molecule `CC[C@H](NC(=O)[C@H](C)NC)C(=O)N1C[C@@H](O)C[C@H]1Cc1c(-c2[nH]c3cc(F)ccc3c2C[C@@H]2C[C@H](O)CN2C(=O)[C@H](CC)NC(=O)[C@H](C)NC)[nH]c2cc(F)ccc12` [BIRINAPANT], the degraded at 8766 h in series [2] was greater than 0.1%.
